Source: US20240050463A1, “THERAPEUTIC COMPOSITIONS AND METHODS FOR TREATING HEPATITIS B” (ARBUTUS BIOPHARMA CORPORATION, priority 2016, published 2024)

How the values were obtained:
[1] = system: hepatitis B virus (HBV); experiment: Serum HBsAg in mouse model of HBV (pAAV/HBV1.2 hydrodynamic injection), enzyme immunoassay; format: in vivo, C3H/HeN mice; conditions: HBV siRNA 1 mg/kg IV Days 0, 7, 14, poly(I:C) 20 μg HDI Day 0, mean ± SEM
Text: A mouse model of hepatitis B virus (HBV) was used to assess the anti-HBV effects of an immune stimulant and HBV-targeting siRNAs, both as independent treatments and in combination with each other.
(§1) This plasmid carries a 1.2-fold overlength copy of a HBV genome and expresses HBV surface antigen (HBsAg) amongst other HBV products. Serum HBsAg expression in mice was monitored using an enzyme immunoassay. Animals were sorted (randomized) into groups based on serum HBsAg levels such that a) all animals were confirmed to express HBsAg and b) HBsAg group means were similar to each other prior to initiation of treatments.
Animals were treated with immune stimulant as follows: On Day 0, 20 micrograms of high molecular weight polyinosinic:poly cytidylic acid (poly(I:C)) was administered via HDI. Animals were treated with lipid nanoparticle (LNP)-encapsulated HBV-targeting siRNAs as follows: On each of Days 0, 7 & 14, an amount of test article equivalent to 1 mg/kg siRNA was administered intravenously. A negative control group was included as the HBsAg expression level is not completely stable in this mouse model of HBV; the absolute concentration of serum HBsAg generally declines over time in individual animals.
The effect of the treatments was determined by collecting a small amount of blood on Days 0 (pre-treatment), 3, 7, 14 & 21 and analyzing it for serum HBsAg content. Samples were diluted as appropriate to generate values within the assay range of quantitation where possible. Individual values falling below the lower limit of quantitation (LLOQ) were set as one-half the LLOQ.

[2] = system: HBV rcDNA in HepDE19 cells; experiment: Inhibition of rcDNA in HepDE19 cells (bDNA assay), checkerboard, MacSynergy II; format: cell-based, HBV (human hepatoma cell line); conditions: Hepatitis B virus, HepDE19, read-out: ADDITIVE INHIBITION
Experimental: In vitro combination studies were conducted using the method of Prichard and Shipman (Prichard M N, and Shipman C Jr., Antiviral Research, 1990, 14(4-5), 181-205; and Prichard M N, et. al., MacSynergy II). HepDE19 cell culture system is a HepG2 (human hepatocarcinoma) derived cell line that supports HBV DNA replication and cccDNA formation in a tetracycline (Tet)-regulated manner and produces HBV rcDNA and a detectable reporter molecule dependent on the production and maintenance of cccDNA (Guo et al 2007. J. Virol 81:12472-12484). HepDE19 (50,000 cells/well) were plated in 96 well collagen-coated tissue-culture treated microtiter plates in DMEM/F12 medium supplemented with 10% fetal bovine serum, 1% penicillin-streptomycin and 1 μg/ml tetracycline and incubated in a humidified incubator at 37° C. and 5% CO2 overnight. Next day, the cells were switched to fresh medium without tetracycline and incubated for 4 hrs at 37° C. and 5% CO2. […] The two inhibitors were tested both singly as well as in combinations in a checkerboard fashion such that each concentration of inhibitor A was combined with each concentration of inhibitor B to determine their combination effects on inhibition of rcDNA production. Following a 7 day-incubation of cells with compound combinations, the level of rcDNA present in the inhibitor-treated wells was measured using a Quantigene 2.0 bDNA assay kit (Affymetrix, Santa Clara, CA) with HBV specific custom probe set and manufacturers instructions. […] The RLU data from the single compound treated cells were analyzed using XL-Fit module in Microsoft Excel to determine EC50 values using a 4-parameter curve fitting algorithm. Concurrently, the effect of compounds on cell viability was assessed using replicate plates, plated at a density of 5,000 cells/well and incubated for 4 days, to determine the ATP content as a measure of cell viability using the cell-titer glo reagent (CTG; Promega Corporation, Madison, WI) as per manufacturer's instructions.
In vitro combination studies were conducted using the method of Prichard and Shipman (Prichard M N, Shipman C, Jr., Antiviral Res, 14, 181-205 (1990)). The HepDE19 cell line was developed as described in Guo et al. (Guo et al., J Virol, 81, 12472-12484 (2007)). It is a human hepatoma cell line stably transfected with the HBV genome, and which can express HBV pregenomic RNA and support HBV rcDNA (relaxed circular DNA) synthesis in a tetracycline-regulated manner. HepDE19 cells were plated in 96 well tissue-culture treated microtiter plates in DMEM/F12 medium supplemented with 10% fetal bovine serum+1% penicillin-streptomycin without tetracycline and incubated in a humidified incubator at 37° C. and 5% CO2 overnight. […] The two inhibitors were tested both singly as well as in combinations in a checkerboard fashion such that each concentration of inhibitor A was combined with each concentration of inhibitor B to determine their combination effects on inhibition of rcDNA production. Following a 48 hour-incubation, the level of rcDNA present in the inhibitor-treated wells was measured using a bDNA assay (Affymetrix) with HBV specific custom probe set and manufacturers instructions. […] Concurrently, the effect of inhibitor combinations on cell viability was assessed using replicate plates that were used to determine the ATP content as a measure of cell viability using the Cell-TiterGlo reagent (Promega) as per manufacturer's instructions.
In vitro combination studies were conducted using the method of Prichard and Shipman (1990) (Prichard M N, Shipman C, Jr. 1990. A three-dimensional model to analyze drug-drug interactions. Antiviral Res 14:181-205 AND Prichard M N. 1992. MacSynergy II, University of Michigan).

[3] = system: HBsAg, D type HBV in primary human hepatocytes (PHH); experiment: microbe, parasite or virus in culture; format: cell-based; conditions: for AVERAGE % INHIBITION, HBsAg: COMPOUND 3 0.00 nM; for AVERAGE % INHIBITION: HBsAg, COMPOUND 22 0.00 nM
Experimental: (§2) The mouse liver perfusion was applied to isolate PHHs. The isolated hepatocytes were further purified by Percoll. The cells were resuspended with culture media and seeded into the 96-well plates (6×10^4 cell/well) or 48-well plates (1.2×10^5 cell/well). The PHHs were infected with a D type HBV one day post seeding (day 1).
(§3) On day 2, the test compounds were diluted and added into the cell culture plates. The culture media containing the compounds were refreshed every other day. The cell culture supernatants were collected on day 8 for the HBV DNA and antigen determinations.
(§4) The compounds were tested at 7 concentrations, 3-fold dilution, in triplicate.
(§5) Two compounds were tested at 5×5 matrix, in triplicate plates.
(§6) HBsAg/HBeAg in the culture supernatants harvested on days 8 were measured by the HBsAg/HBeAg ELISA kit (Autobio) according to the manual. The samples were diluted with PBS to get the signal in the range of the standard curve. The inhibition rates were calculated with the formula below. The combination effect was analyzed by the MacSynergy software.
% Inh. HBsAg=[1−HBsAg quantity of sample/HBV quantity of DMSO control]×100.

[4] = system: D type HBV in primary human hepatocytes (PHH); experiment: HBV DNA in culture supernatants of HBV-infected primary human hepatocytes (qPCR), MacSynergy; format: cell-based; conditions: for AVERAGE % INHIBITION, HBV DNA: COMPOUND 3 0.00 nM; for AVERAGE % INHIBITION: HBV DNA, COMPOUND 22 0.00 nM
Experimental: as §2, §3, §4, §5
DNA in the culture supernatants harvested on days 8 were isolated with QIAamp 96 DNA Blood Kit (Qiagen-51161). For each sample, 100 μl of the culture supernatants was used to extract DNA. The DNA was eluted with 100 μl, 150 μl or 180 μl of AE. HBV DNA in the culture supernatants was quantified by qPCR. The combination effect was analyzed by the MacSynergy software. The primers are described below.

[5] = system: HBeAg, D type HBV in primary human hepatocytes (PHH); experiment: microbe, parasite or virus in culture; format: cell-based
Experimental: as §2, §3, §4, §5, §6
% Inh. HBeAg=[1−HBeAg quantity of sample/HBV quantity of DMSO control]×100.

[6] = system: hepatitis B virus (HBV); experiment: Serum HBsAg in AAV1.2 mouse model of HBV, enzyme immunoassay; format: in vivo, C57/Bl6 mice; conditions: D0 (pre-treatment); Compound 20 3.0 mg/kg oral twice daily Days 0-28; HBV siRNA 0.3 mg/kg IV Day 0
Experimental: as §1, with “This viral vector contains” for “This plasmid carries”, “of the” for “of a”
Animals were treated with Compound 20 as follows: Starting on Day 0, a 3.0 mg/kg dosage of Compound 20 was administered orally to animals on a twice-daily frequency for a total of 56 doses between Days 0 and 28. Compound 20 was dissolved in a co-solvent formation for administration. Negative control animals were administered either the co-solvent formulation alone, or were not treated with any test article. Animals were treated with lipid nanoparticle (LNP)-encapsulated HBV-targeting siRNAs as follows: On Day 0, an amount of test article equivalent to 0.3 mg/kg siRNA was administered intravenously. The HBsAg expression levels for each treatment were compared against the Day 0 (pre-dose) values for that group.
The effect of these treatments was determined by collecting blood on Days 0 (pre-treatment), 7, 14, and 28 and analyzing it for serum HBsAg content.

[7] = Hepatitis B virus, Hepatocyte, read-out: AVERAGE % INHIBITION (HBsAg)
[8] = Hepatitis B virus, Hepatocyte, read-out: AVERAGE % INHIBITION (HBV DNA)
[9] = Hepatitis B virus, Hepatocyte, read-out: AVERAGE % INHIBITION (HBeAg)

## polyinosinic:poly cytidylic acid [Poly(I:C)]
[1]; Day 0 (pre-treatment)
  Serum HBsAg as percentage of individual pre-treatment baseline: 100 ± 0%
[1]; Day 3
  Serum HBsAg as percentage of individual pre-treatment baseline: 6.1 ± 1.1%
[1]; Day 7
  Serum HBsAg as percentage of individual pre-treatment baseline: 3.5 ± 1.1%
[1]; Day 14
  Serum HBsAg as percentage of individual pre-treatment baseline: 3.9 ± 1.4%
[1]; Day 21
  Serum HBsAg as percentage of individual pre-treatment baseline: 4.7 ± 2.3%

## CC(C)OC(=O)[C@H](C)N[P@](=O)(CO[C@H](C)Cn1cnc2c(N)ncnc21)Oc1ccccc1 [TAF, tenofovir alafenamide]
[2]
  inhibition at 0.0007813 µM: -4.76%
  inhibition at 0.0015625 µM: 3.49%
[3]; [7]
  inhibition at 0.000123457 µM: 29.8%
  inhibition at 0.00037037 µM: 10.8%
  inhibition at 0.00111111 µM: 20.8%
  inhibition at 0.00333333 µM: 9.06%
  inhibition at 0.01 µM: 7.97%
[4]; [8]
  inhibition at 0.00012 µM: -2.6%
  inhibition at 0.00037 µM: -1.92%
  inhibition at 0.00333 µM: 40.2%
  inhibition at 0.01 µM: 50.2%
[4]; TAF 0.05 nM
  AVERAGE % INHIBITION, HBV DNA: −8.77%
[4]; TAF 0.41 nM
  AVERAGE % INHIBITION, HBV DNA: 28.78%
[4]; TAF 1.23 nM
  AVERAGE % INHIBITION, HBV DNA: 63.39%
[4]; TAF 3.70 nM
  AVERAGE % INHIBITION, HBV DNA: 78.31%
[5]; [9]
  inhibition at 50 pM: 1.17%
  inhibition at 0.00014 µM: -2.78%
  inhibition at 0.00041 µM: 1.76%
  inhibition at 0.00123 µM: 9.91%
  inhibition at 0.0037 µM: 11.9%

## COCCCOc1cc2c(cc1OC)-c1cc(=O)c(C(=O)O)cn1C(C(C)C)C2 (stereo not drawn) [Compound 25]
[3]; COMPOUND 25 0.37 nM
  AVERAGE % INHIBITION, HBsAg: −5.09%
  AVERAGE % INHIBITION: 12.93%
[3]; COMPOUND 25 […]
  AVERAGE % INHIBITION, HBsAg: −3.18%
  AVERAGE % INHIBITION: 26.4%
[4]; COMPOUND 25 0.12 nM
  AVERAGE % INHIBITION, HBV DNA: −20.98%
  AVERAGE % INHIBITION: −42.82%
[4]; COMPOUND 25 0.37 nM
  AVERAGE % INHIBITION, HBV DNA: −51.8%
  AVERAGE % INHIBITION: −46.48%
[4]; COMPOUND 25 3.33 nM
  AVERAGE % INHIBITION, HBV DNA: 15.24%
  AVERAGE % INHIBITION: 16.41%
[4]; COMPOUND 25 10.00 nM
  AVERAGE % INHIBITION, HBV DNA: 28%
  AVERAGE % INHIBITION: 37.39%
[4]; COMPOUND 25 […]
  AVERAGE % INHIBITION, HBV DNA: 5.69%
  AVERAGE % INHIBITION: −19.21%
[5]; COMPOUND 25 […], COMPOUND 3 0.00 nM
  AVERAGE % INHIBITION, HBeAg: 4.51%
[5]; HBeAg, COMPOUND 25 […], COMPOUND 22 0.00 nM
  AVERAGE % INHIBITION: 14.98%

## COCCCOc1cc2c(cc1OC)-c1cc(=O)c(C(=O)O)cn1[C@H](C(C)C)C2 [Compound 20]
[6]
  Serum HBsAg, percentage of individual animal pre-treatment baseline value at Day 0 (mean ± SEM): 100 ± 0%
